Usually IC50 stands for the concentration needed to halve the response being measured.

The values below come from US10131644B2, “Aryl sultam derivatives as RORc modulators” (Genentech, Inc., priority 2014, dated 2018).

The target of this experiment is T1, RORc (Homo sapiens, UniProt P51449).
T1 sequence (P51449 269-508 limits assumed): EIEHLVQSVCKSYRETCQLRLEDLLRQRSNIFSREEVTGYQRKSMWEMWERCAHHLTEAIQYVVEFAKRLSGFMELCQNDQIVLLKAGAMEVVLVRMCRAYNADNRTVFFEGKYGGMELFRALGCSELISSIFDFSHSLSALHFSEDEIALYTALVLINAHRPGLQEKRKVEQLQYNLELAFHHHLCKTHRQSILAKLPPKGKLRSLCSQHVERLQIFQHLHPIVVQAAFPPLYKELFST
Description: In vitro RORc ligand binding assay (25-[3H]hydroxycholesterol displacement). Particulars: IC50, IC50 values for RORc; unit inferred.
Compound `C[C@H]1CC[C@H](c2ccccc2)S(=O)(=O)N1Cc1ccc(C2(C#N)CC(F)(F)C2)cc1F` [Compound 165, 3,3-difluoro-1-[3-fluoro-4-[[(3S,6R)-3-methyl-1,1-dioxo-6-phenyl-thiazinan-2-yl]methyl]phenyl]cyclobutanecarbonitrile] came in with a half-maximal inhibitory concentration (IC50) of 0.0522 µM.

Compound `C[C@H]1CC[C@H](c2ccccc2)S(=O)(=O)N1Cc1cc(F)c(C2(C(=O)NCC#N)CCOCC2)cc1F` [Compound 100, N-(cyanomethyl)-4[2,5-difluoro-4-[[(3S,6R)-3-methyl-1,1-dioxo-6-phenyl-thiazinan-2-yl]methyl]phenyl]tetrahydropyran-4-carboxamide] displayed an IC50 of 0.031 µM.

Regarding `C[C@H]1CC[C@H](c2ccccc2)S(=O)(=O)N1Cc1cc(F)c(C2(C(=O)NCC#N)CC2)cc1F` [Compound 128, N-(cyanomethyl)-1-[2,5-difluoro-4-[[(3S,6R)-3-methyl-1,1-dioxo-6-phenyl-thiazinan-2-yl]methyl]phenyl]cyclopropane-carboxamide], the IC50 came out at 0.39 µM.

In the case of `COC1(OC)CC(C(N)=O)(c2ccc(CN3[C@@H](C)CC[C@H](c4ccccc4)S3(=O)=O)c(F)c2)C1` [Compound 181, 1-[3-fluoro-4-[[(3S,6R)-3-methyl-1,1-dioxo-6-phenyl-thiazinan-2-yl]methyl]phenyl]-3,3-dimethoxy-cyclobutanecarboxamide], the half-inhibitory concentration (IC50) amounted to 0.0237 µM.

In turn, `C[C@H]1CC[C@H](c2ccccc2)S(=O)(=O)N1Cc1ccc(C2(NC(=O)OC(C)(C)C)CC2)cc1F` [Compound 152, tert-butyl N-[1-[3-fluoro-4-[[(3S,6R)-3-methyl-1,1-dioxo-6-phenyl-thiazinan-2-yl]methyl]phenyl]cyclopropyl]carbamate] returned an IC50 of 0.227 µM.

As to `C[C@H]1CC[C@H](c2ccccc2)S(=O)(=O)N1Cc1ccc(C2(C(=O)NCCS(C)(=O)=O)CCOCC2)cc1F` [Compound 60, 4-[3-fluoro-4-[[(3S,6R)-3-methyl-1,1-dioxo-6-phenyl-thiazinan-2-yl]methyl]phenyl]-N-(2-methylsulfonylethyl)tetrahydropyran-4-carboxamide], the IC50 came out at 0.111 µM.

`COC(=O)C1(c2ccc(CN3[C@@H](C)CC[C@H](c4ccccc4)S3(=O)=O)c(F)c2)CCOCC1` [Compound 39, 4-[3-Fluoro-4-((3S,6R)-3-methyl-1,1-dioxo-6-phenyl-[1,2]thiazinan-2-ylmethyl)-phenyl]-tetrahydro-pyran-4-carboxylic acid methyl ester]: the IC50 was determined as 0.19 µM.

`C[C@H]1CC[C@H](c2ccccc2)S(=O)(=O)N1Cc1ccc(C2(C(=O)NCCO)CCOCC2)cc1F` [Compound 48, 4-(3-fluoro-4-(((3S,6R)-3-methyl-1,1-dioxido-6-phenyl-1,2-thiazinan-2-yl)methyl)phenyl)-N-(2-hydroxyethyl)tetrahydro-2H-pyran-4-carboxamide] came in with an IC50 of 0.337 µM.

Turning to `C[C@H]1CC[C@H](c2ccccc2)S(=O)(=O)N1Cc1ccc(C2(O)CCS(=O)(=O)CC2)cc1F` [Compound 42, (3S,6R)-2-(2-fluoro-4-(4-hydroxy-1,1-dioxidotetrahydro-2H-thiopyran-4-yl)benzyl)-3-methyl-6-phenyl-1,2-thiazinane 1,1-dioxide], the concentration for half-maximal inhibition (IC50) is 0.19 µM.

In turn, `C[C@H]1CC[C@H](c2ccccc2)S(=O)(=O)N1Cc1ccc(C2(NCCCO)CCOCC2)cc1F` [Compound 187, 3-[[4-[3-fluoro-4-[[(3S,6R)-3-methyl-1,1-dioxo-6-phenyl-thiazinan-2-yl]methyl]phenyl]tetrahydropyran-4-yl]amino]propan-1-ol] yielded an IC50 of 0.074 µM.

`C[C@H]1CC[C@H](c2ccccc2)S(=O)(=O)N1Cc1ccc(C2(C(N)=O)CCOCC2)cc1F` [Compound 67, 4-[3-fluoro-4-[[(3S,6R)-3-methyl-1,1-dioxo-6-phenyl-thiazinan-2-yl]methyl]phenyl]tetrahydropyran-4-carboxamide]: the IC50 was 0.018 µM.

The compound `C[C@H]1CC[C@H](c2ccccc2)S(=O)(=O)N1Cc1cc(F)c(C2(OCC(=O)NCCO)COC2)cc1F` [Compound 176, 2-[3-[2,5-difluoro-4-[[(3S,6R)-3-methyl-1,1-dioxo-6-phenyl-thiazinan-2-yl]methyl]phenyl]oxetan-3-yl]oxy-N-(2-hydroxyethyl)acetamide] registered a 50% inhibitory concentration (IC50) of 0.0025 µM.

Take `C[C@H]1CC[C@H](c2ccccc2)S(=O)(=O)N1Cc1cc(F)c(C2(NCC(N)=O)COC2)cc1F` [Compound 195, 2-[[3-[2,5-difluoro-4-[[(3S,6R)-3-methyl-1,1-dioxo-6-phenyl-thiazinan-yl]methyl]phenyl]oxetan-3-yl]amino]acetamide]: the half-maximal inhibitory concentration (IC50) came out at 0.035 µM.

Compound `C[C@H]1CC[C@H](c2ccccc2)S(=O)(=O)N1Cc1ccc([C@]2(C#N)CC[C@@H](NC=O)CC2)cc1` [Example 19, N-{4-Cyano-4-[4-((3S,6R)-3-methyl-1,1-dioxo-6-phenyl-[1,2]thiazinan-2-ylmethyl)-phenyl]-cyclohexyl}-formamide] returned an IC50 of 0.31 µM.

For `C[C@H]1CC[C@H](c2ccccc2)S(=O)(=O)N1Cc1cc(F)c(C2(OCC(O)CO)CCOCC2)cc1F` (stereo in doubt) [Compound 170, (2S)-3-[4-[2,5-difluoro-4-[[(3S,6R)-3-methyl-1,1-dioxo-6-phenyl-thiazinan-2-yl]methyl]phenyl]tetrahydropyran-4-yl]oxypropane-1,2-diol], the half-maximal inhibitory concentration (IC50) amounted to 0.0117 µM.

Regarding `C[C@H]1CC[C@H](c2ccccc2)S(=O)(=O)N1Cc1ccc(C2([C@H](O)CO)CCOCC2)cc1F` [Compound 103, (1S)-1-[4-[3-fluoro-4-[[(3S,6R)-3-methyl-1,1-dioxo-6-phenyl-thiazinan-2-yl]methyl]phenyl]tetrahydropyran-4-yl]ethane-1,2-diol], the IC50 came to 0.0689 µM.

Regarding `C[C@H]1CC[C@H](c2ccccc2)S(=O)(=O)N1Cc1ccc(C2(NCC(=O)O)CCOCC2)cc1F` [Compound 164, 2-[[4-[3-fluoro-4-[[(3S,6R)-3-methyl-1,1-dioxo-6-phenyl-thiazinan-2-yl]methyl]phenyl]tetrahydropyran-4-yl]amino]acetic acid], the 50% inhibitory concentration (IC50) was 0.112 µM.

`CNC(=O)[C@]1(c2ccc(CN3[C@@H](C)CC[C@H](c4ccccc4)S3(=O)=O)c(F)c2)CC[C@H](n2cnnc2)CC1` [Compound 43, 1-[3-Fluoro-4-((3S,6R)-3-methyl-1,1-dioxo-6-phenyl[1,2]thiazinan-2-ylmethyl)-phenyl]-4-[1,2,4]triazol-4-yl-cyclohexanecarboxylic acid methylamide] came in with an IC50 of 0.096 µM.

Consider `C[C@H]1CC[C@H](c2ccccc2)S(=O)(=O)N1Cc1ccc(C2(COCCCO)CCOCC2)cc1F` [Compound 92, 3-[[4-[3-fluoro-4[[(3S,6R)-3-methyl-1,1-dioxo-6-phenyl-thiazinan-2-yl]methyl]phenyl]tetrahydropyran-4-yl]methoxy]propan-1-ol], for which the 50% inhibitory concentration (IC50) was determined as 0.0758 µM.

For `C[C@H]1CC[C@H](c2ccccc2)S(=O)(=O)N1Cc1ccc(C2([C@H](O)CCO)CCOCC2)cc1F` [Compound 118, (1R)-1-[4-[3-fluoro-4-[[(3S,6R)-3-methyl-1,1-dioxo-6-phenyl-thiazinan-2-yl]methyl]phenyl]tetrahydropyran-4-yl]propane-1,3-diol], the IC50 was determined as 0.0166 µM.
